Paper PMC11859184, “Synthesis and Evaluation of ^68Ga- and ^177Lu-Labeled [diF-Pro^14]Bombesin(6−14) Analogs for Detection and Radioligand Therapy of Gastrin-Releasing Peptide Receptor-Expressing Cancer” (Pharmaceuticals, 2025)
Read-outs that look alike come from different tables or passages of the source.

Assay: Ex vivo biodistribution of 177Lu-labeled ligands in PC-3 tumor-bearing mice
Details: mouse, intravenous; for tissue uptake at 1 h: 1 h pi; for tissue uptake at 4 h: 4 h pi; for tissue uptake at 24 h: 24 h pi; for tissue uptake at 72 h: 72 h pi
Procedure: SPECT/CT imaging was conducted using an MI Labs (Houten, The Netherlands) U-SPECT-II/CT scanner with a custom-made ultra-high sensitivity big mouse collimator (2 mm pinhole size) following published procedure. The experiments were obtained in accordance with the same protocol established in the PET/CT imaging and ex vivo biodistributions section. The mice were used for SPECT/CT imaging and ex vivo biodistributions studies once the tumors reached a diameter of 5–8 mm. PC-3 tumor-bearing mice were sedated (2.5% isoflurane in O2) and injected with 31.4–36.9 MBq of the ^177Lu-labeled ligand through a lateral caudal tail vein. The mouse was imaged at 1, 4, 24, 72, and 120 h pi. At each time point, a 5 min CT scan was performed with 615 μA and 60 kV parameters for localization and attenuation, followed by two 30 min static SPECT scans in list mode with an energy window centered around 208 keV. The U-SPECT II software was used to reconstruct data, and the images were decay corrected to the time of injection with PMOD v 3.402 (PMOD Technologies GmbH, Fallanden, Switzerland).
For ex vivo biodistribution studies, the mice were injected with ~3–5 MBq of the ^177Lu-labeled ligand (n = 5). At 1, 4, 24, 72, and 120 h post-injection, the mice were anesthetized with 2% isoflurane, euthanized by CO2 inhalation, and the tissues/organs of interest were […] for radioactivity counting. The blocking study was performed at 1 h pi via co-injection of the ^177Lu-labeled ligand with 100 μg of [D-Phe^6,Leu-NHEt^13,des-Met^14]Bombesin(6–14).

[1] = kidneys, n = 5, read-out: Kidneys uptake
[2] = large intestine, n = 5, read-out: Large intestine uptake
[3] = liver, n = 5, read-out: Liver uptake
[4] = lungs, n = 5, read-out: Lungs uptake
[5] = muscle, n = 5, read-out: Muscle uptake
[6] = pancreas, n = 5, read-out: Pancreas uptake
[7] = small intestine, n = 5, read-out: Small intestine uptake
[8] = spleen, n = 5, read-out: Spleen uptake
[9] = stomach, n = 5, read-out: Stomach uptake
[10] = testes, n = 5, read-out: Testes uptake

With `CC(C)C[C@@H](CN1CC(F)(F)C[C@H]1C(N)=O)NC(=O)[C@H](Cc1c[nH]cn1)NC(=O)CN(C)C(=O)[C@@H](NC(=O)[C@H](C)NC(=O)[C@H](Cc1c[nH]c2ccccc12)NC(=O)[C@H](CCC(N)=O)NC(=O)[C@@H](Cc1ccccc1)NC(=O)CN1CCC(NC(=O)CN2CCN(CC(=O)O)CCN(CC(=O)O)CCN(CC(=O)O)CC2)CC1)C(C)C` [[^177Lu]Lu-LW02080, metal not drawn] the tissue uptake at 120 h (heart, 120 h pi, n = 5, read-out: Heart uptake) was 0.01 ± 0.01 %ID/g, the tissue uptake at 1 h (kidneys, 100 ug, blocked (100 µg GRPR antagonist co-injected), read-out: Kidneys uptake) was 4.17 ± 0.95 %ID/g and the tissue uptake at 1 h [1] was 2.65 ± 0.48 %ID/g. For the same compound, the tissue uptake at 4 h [1] was 1.88 ± 0.35 %ID/g, the tissue uptake at 24 h [1] was 0.89 ± 0.28 %ID/g and the tissue uptake at 72 h [1] was 0.26 ± 0.08 %ID/g. The tissue uptake at 120 h (kidneys, 120 h pi, n = 5, read-out: Kidneys uptake) was 0.12 ± 0.03 %ID/g, the tissue uptake at 1 h (large intestine, 100 ug, blocked (100 µg GRPR antagonist co-injected), read-out: Large intestine uptake) was 0.21 ± 0.09 %ID/g and the tissue uptake at 1 h [2] was 0.17 ± 0.09 %ID/g. The tissue uptake at 4 h [2] was 0.34 ± 0.04 %ID/g, the tissue uptake at 24 h [2] was 0.15 ± 0.06 %ID/g and the tissue uptake at 72 h [2] was 0.06 ± 0.02 %ID/g. The tissue uptake at 120 h (large intestine, 120 h pi, n = 5, read-out: Large intestine uptake) was 0.02 ± 0.01 %ID/g, the tissue uptake at 1 h (liver, 100 ug, blocked (100 µg GRPR antagonist co-injected), read-out: Liver uptake) was 0.33 ± 0.08 %ID/g and the tissue uptake at 1 h [3] was 0.27 ± 0.1 %ID/g. For the same compound, the tissue uptake at 4 h [3] was 0.2 ± 0.08 %ID/g, the tissue uptake at 24 h [3] was 0.09 ± 0.01 %ID/g and the tissue uptake at 72 h [3] was 0.04 ± 0.01 %ID/g. The tissue uptake at 120 h (liver, 120 h pi, n = 5, read-out: Liver uptake) was 0.03 ± 0.01 %ID/g, the tissue uptake at 1 h (lungs, 100 ug, blocked (100 µg GRPR antagonist co-injected), read-out: Lungs uptake) was 0.45 ± 0.22 %ID/g and the tissue uptake at 1 h [4] was 0.43 ± 0.04 %ID/g. The tissue uptake at 4 h [4] was 0.13 ± 0.08 %ID/g, the tissue uptake at 24 h [4] was 0.05 ± 0.03 %ID/g and the tissue uptake at 72 h [4] was 0.02 %ID/g. It also gave a tissue uptake at 120 h (lungs, 120 h pi, n = 5, read-out: Lungs uptake) of 0.05 ± 0.03 %ID/g, a tissue uptake at 1 h (muscle, 100 ug, blocked (100 µg GRPR antagonist co-injected), read-out: Muscle uptake) of 0.15 ± 0.04 %ID/g and a tissue uptake at 1 h [5] of 0.06 ± 0.01 %ID/g. The tissue uptake at 4 h [5] was 0.01 %ID/g, the tissue uptake at 24 h [5] was 0.01 %ID/g and the tissue uptake at 1 h (pancreas, 100 ug, blocked (100 µg GRPR antagonist co-injected), read-out: Pancreas uptake) was 0.34 ± 0.09 %ID/g. The tissue uptake at 1 h [6] was 0.39 ± 0.08 %ID/g, the tissue uptake at 4 h [6] was 0.06 ± 0.02 %ID/g and the tissue uptake at 24 h [6] was 0.04 ± 0.01 %ID/g. For the same compound, the tissue uptake at 72 h [6] was 0.01 %ID/g, the tissue uptake at 120 h (pancreas, 120 h pi, n = 5, read-out: Pancreas uptake) was 0.01 %ID/g and the tissue uptake at 120 h (pancreas, all time points (1, 4, 24, 72, 120 h pi), read-out: pancreas uptake) was under 0.5 %ID/g. For the same compound, the tissue uptake at 1 h (small intestine, 100 ug, blocked (100 µg GRPR antagonist co-injected), read-out: Small intestine uptake) was 0.48 ± 0.18 %ID/g, the tissue uptake at 1 h [7] was 0.28 ± 0.03 %ID/g and the tissue uptake at 4 h [7] was 0.07 ± 0.03 %ID/g. For the same compound, the tissue uptake at 24 h [7] was 0.03 ± 0.01 %ID/g, the tissue uptake at 72 h [7] was 0.01 %ID/g and the tissue uptake at 120 h (small intestine, 120 h pi, n = 5, read-out: Small intestine uptake) was 0.01 %ID/g. The tissue uptake at 1 h (spleen, 100 ug, blocked (100 µg GRPR antagonist co-injected), read-out: Spleen uptake) was 0.16 ± 0.05 %ID/g, the tissue uptake at 1 h [8] was 0.14 ± 0.04 %ID/g and the tissue uptake at 4 h [8] was 0.07 ± 0.01 %ID/g. It also gave a tissue uptake at 24 h [8] of 0.07 ± 0.02 %ID/g, a tissue uptake at 72 h [8] of 0.04 ± 0.01 %ID/g and a tissue uptake at 120 h (spleen, 120 h pi, n = 5, read-out: Spleen uptake) of 0.03 %ID/g. The tissue uptake at 1 h (stomach, 100 ug, blocked (100 µg GRPR antagonist co-injected), read-out: Stomach uptake) was 0.26 ± 0.14 %ID/g, the tissue uptake at 1 h [9] was 0.08 ± 0.04 %ID/g and the tissue uptake at 4 h [9] was 0.02 %ID/g. It also gave a tissue uptake at 24 h [9] of 0.07 ± 0.04 %ID/g, a tissue uptake at 72 h [9] of 0.02 ± 0.01 %ID/g and a tissue uptake at 120 h (stomach, 120 h pi, n = 5, read-out: Stomach uptake) of 0.01 ± 0.01 %ID/g. For the same compound, the tissue uptake at 1 h (testes, 100 ug, blocked (100 µg GRPR antagonist co-injected), read-out: Testes uptake) was 0.22 ± 0.09 %ID/g, the tissue uptake at 1 h [10] was 0.2 ± 0.04 %ID/g and the tissue uptake at 4 h [10] was 0.03 ± 0.01 %ID/g. The tissue uptake at 24 h [10] was 0.03 ± 0.01 %ID/g, the tissue uptake at 72 h [10] was 0.01 %ID/g and the tissue uptake at 120 h (testes, 120 h pi, n = 5, read-out: Testes uptake) was 0.01 %ID/g.
